Data set [1] concerns the target T1, HSP90α (Homo sapiens, UniProt P07900). Kind of data set: HSP90 N-Terminal Domain Assay Kit, fluorescence polarization competition with FITC-Geldanamycin. Format: binding. On the set-up: purchased BPS Bioscience 50293. The following applies: dose-response 1 pM to 10 μM, n = 3, extrapolated with GraphPad Prism; read-out: HSP90α inhibition IC50. The protocol:
HSP90‐directed inhibitory activity was assessed employing the HSP90 N‐Terminal Domain Assay Kit (BPS Bioscience) according to the manufacturer's instructions. The fluorescence intensity was measured with a multiplate reader (Victor Nivo‐Perkin Elmer). The IC50 was calculated by analyzing the data using GraphPad Prism 10 software.
HSP90 inhibition activity assay. […] […] […] Data are the percentage of residual enzyme activity relative to the solvent (DMSO). The IC50s were calculated by analyzing the data using GraphPad Prism 10 software.

The target of data set [2] is T1, HSP90α. Description: Cellular thermal shift assay (CETSA) on cellular lysates, HSP90α. The following applies: 46°C, compound 0.5 mM.
Procedure: Cellular Thermal Shift Assay (CETSA). […] Briefly, the cellular extract was lysed in RIPA buffer (10 mM Tris-HCl pH 7.4, 250 mM NaCl, 1% NP40/IGEPAL, 1% DOC, 0.01% SDS, 0.01% Glycerol, supplemented with protease/phosphatase inhibitor, PI/PhI mix and 2 mM DTT) and protein concentration was determined by a BCA kit (Pierce, Life Technologies, TFS, Waltham, MA, USA). Samples were homogenized by 3 cycles of freeze-thawing using liquid nitrogen and centrifuged at 13000 rpm at 4 °C for 30 min to separate the soluble fraction from the debris.
Following the supplier's recommendations, samples were loaded into the proper cartridge (12- 230 kDa Wes/Jess Separation Modules, ProteinSimple, Biotechne, Minneapolis, MN, USA). HSP90α (1:50, MsMAb, Abcam), HSP90β (1:50, RbMAb, Abcam), GRP94 (1:50, RbMAb, Abcam), TRAP1 (1:50, MsMAb, Abcam), α-Tubulin (1:500, MsMAb, Abcam), and β-Actin (1:500, RbMAb, Abcam) were used as primary antibodies. Secondary antibodies were Anti-Mouse Secondary HRP and Anti-Rabbit Secondary HRP (ProteinSimple, Biotechne, Minneapolis, MN, USA).
For data set [3], the system named is IMR90 cells. Kind of data set: In vitro screening of the 14 in silico-selected compounds, surviving cell count, proliferating vs senescent IMR90. As to conditions: 48 h; for senolytic activity on senescent IMR90 cells: PD19-PD21, 1 μM; for effect on non-senescent IMR90 cells: PD15-PD17, 1 μM. Format: cell-based, Homo sapiens. An excerpt:
(§1) IMR90 and WI38 lung fibroblasts were purchased from ECACC‐Merck. Human bone marrow (BM)‐derived mesenchymal stromal cells (MSCs) were purchased from Lonza. Human umbilical vein endothelial cells (HUVECs) are primary cells obtained from a pool of donors purchased from Clonetics (Lonza). Murine ear fibroblasts (MearFs) were obtained from C57BL/6J mice maintained in the INRCA “Specific Pathogen Free” (SPF) animal facility. MCF7 breast cancer cells were purchased from ATCC. For dose–response curves, IMR90 and WI38 were induced to senescence through replicative passages; MSCs, HUVECs, and MearFs senescence was induced with Doxorubicin; MCF7 senescence was induced with 4‐Hydroxytamoxifen (Lee et al. [2014]). The EC50 was calculated using GraphPad Prism 10 software. All treatment specifications are reported in the extended section.
(§2) Cell culture and treatment. IMR90 cells (Homo sapiens, fetal lung, fibroblast) and WI38 cells (Homo sapiens, fetal lung, fibroblast) were purchased from ECACC-Merck (Merck, Darmstadt, Germany) and cultured in MEM medium (Euroclone, Milano, Italy) supplemented with 1% L-Glutamine (Euroclone, Milano, Italy), 1% Penicillin-Streptomycin (Euroclone, Milano, Italy), and 10% Fetal Bovine Serum (FBS, Euroclone, Milano, Italy), at 37°C, 5% CO2. IMR90 cells with a population doubling (PD) from PD15 to PD23 were used; cells were considered incrementally senescent from passage PD19 to passage PD23. WI38 cells were used from PD26 to PD53. Cells were considered incrementally senescent from passage PD49 to passage PD53. For the compounds in vitro screening, IMR90 cells with passages from PD15 to PD23 were tested at increasing concentrations of 0.5 μM, 1 μM, 10 μM, and 25 μM over 24 and 48 h to evaluate the compounds' efficacy and cytotoxicity compared to the Vehicle (DMSO ≤ 0.1%). Cells were counted manually, in triplicate, using Trypan blue reagent (Euroclone) and disposable Bürker chambers. […] K5 dose-response proliferation curves were performed with compound K5 (Molport, SIA, Riga, Latvia) in concentrations 0.1, 0.5, 1, 5, 10, 50, 100, and 200 μM for 48 h. Cells were counted using a Trypan blue reagent and EVAplus cell counter. The EC50s were calculated by analyzing the data using GraphPad Prism 10 software.

For data set [4], the system named is IMR90 cells. Description: Dose-response curves on proliferating and replicative senescent IMR90 (Trypan blue cell count). Format: cell-based.
From the text: as §1, §2
MCF7 cell line (ATCC; HTB-22, Homo sapiens, breast cancer) was purchased from ATCC; cells were grown in MEM medium (Corning, New York, USA, #15-010-CVR) supplemented with 10% FBS (Gibco, Invitrogen, Carlsbad, CA, USA, #10270106), 1% glutamine (Corning #25005-CI), 1% penicillin and streptomycin (Corning #30002-CI). Cells were incubated at 37 °C with 5% CO2. Senescent status induction: MCF7 were plated 24 h before the treatment with 4-Hydroxytamoxifen (TAM) 10 μM to induce the senescence described by (Lee et al. 2014). Control cultures were treated with equal volumes of 75% ethanol as the vehicle. The treatment with TAM lasts 96 h, after which the cells have been washed and treated with the senolytic drugs K5 10 µM for another 96 h. The treatment with the senolytic compounds has been renewed at 48 h. Cell mortality and vitality curves after treatment with K5 (10 μM, orange) or Vehicle (DMSO, grey) were monitored using the Incucyte live-cell Analysis system (Sartorius, Goettingen, Germany). The estimated Senolytic index (SI) was calculated as the ratio between the EC50 in proliferating cells and the EC50 in senescent cells, extrapolated using GraphPad Prism 10 software.

Data set [5] concerns IMR90 cells. The description is as above. The following applies: proliferating IMR90 (PD14), 48 h. Format: cell-based.
Data set [6] deals with IMR90 cells. Description: Immunofluorescence of Cytochrome C / mitochondria colocalization in senescent IMR90. In kind it is cell-based, Homo sapiens. The following applies: senescent IMR90 (PD21), 48 h, K5 25 μM, Dasatinib 1 μM; Vehicle OR = 0.913. As to the method: (§3) Treated/untreated senescent IMR90 and MCF7 cells were fixed, permeabilized, and stained following suppliers' recommendations. Images were acquired using an Olympus IX83 research inverted microscope (IF) and a phase microscopy Nikon ECLIPSE Ei R (IHC) at 40× MAG.
(§4) Immunofluorescence staining. Treated/untreated IMR90 and MCF7 cells were cultured in LabTek II chamber slides (Nunc, Biosigma). At the final time point, cells were stained with 500 nM MitoTracker Orange (Thermo Fisher Scientific) for 30 min at 37°C and then fixed in 4% PFA (Merck) for 10 min, RT, and permeabilized with 0.1% Triton solution (Merck) for 30 min at RT. Samples were blocked in 5% BSA for 90 min, incubated overnight at 4°C with primary antibody against Cytochrome C (1:50, RbMAb, Abcam), and 1h at RT with secondary antibody Alexa Fluor 488 goat anti-Rb (1:200, Thermo Fisher Scientific). Nuclei were stained with DAPI (Cell Signaling) for 10 min at RT, and ProLong Glass Antifade Mountant (Thermo Fisher Scientific) was used to seal coverslips. Images were acquired using an Olympus IX83 research inverted microscope at 40X magnifications.

A further data set relates to MCF7 cells. Description: Immunofluorescence of Cytochrome C / mitochondria colocalization in senescent MCF7. In kind it is cell-based, Homo sapiens. The following applies: MCF7, TAM 10 µM 96 h, then 72 h K5 10 µM or Dasatinib 1 µM. The protocol:
as §3, §4

Like-named read-outs stand apart in the source and are kept apart here.

Turning to `Cn1c(=O)c2c(ncn2C)n(C)c1=O` [Caffeine, reference compound], the IC50 (as a rule, the concentration that inhibits the measured activity by half) at HSP90α [1] was over 300000 nM. The “interaction / stabilization of HSP90α in CETSA” value on HSP90α [2] is “does not interact with the protein”.
Take `O=S(=O)(NCc1ccc(-c2ccc(F)cc2F)o1)c1ccccc1` [Compound C2, N-{[5-(2,4-difluorophenyl)furan-2-yl]methyl}benzenesulfonamide]: in the data set with IMR90 cells [3], the “senolytic activity on senescent IMR90 cells” value was “evident senolytic activity”.
As for `Cc1[nH]nc(-c2ccc(O)cc2O)c1Oc1ccc(F)cc1` [Compound B2, 4-[4-(4-fluorophenoxy)-5-methyl-1H-pyrazol-3-yl]benzene-1,3-diol], the “senolytic activity on senescent IMR90 cells” value with IMR90 cells [3] is listed as “evident senolytic activity”.
With `CO[C@H]1/C=C\C=C(/C)C(=O)NC2=CC(=O)C(NCCN(C)C)=C(C[C@@H](C)C[C@H](OC)[C@H](O)[C@@H](C)/C=C(\C)[C@@H]1OC(N)=O)C2=O` [Compound 17-DMAG], the “effect on non-senescent IMR90 cells” value with IMR90 cells [3] was “cytotoxic effects also visible in non”. For the same compound, the “Senolytic evidence (no, partly/yes)” value in the data set with IMR90 cells [4] (IMR90, Replicative/passages) is on record as “Yes”. In addition, the EC50 (as a rule, the concentration that produces a half-maximal response) in the data set with IMR90 cells [4] (IMR90, Replicative/passages, read-out: EC50 senescent cells) came to 85 nM; with IMR90 cells [4] (IMR90, read-out: EC50 proliferating cells), 780 nM; in the data set with IMR90 cells [5], 785 nM.
For `CC(C)c1cc(-c2n[nH]c(=O)n2-c2ccc3c(ccn3C)c2)c(O)cc1O` [Ganetespib], the “effect on non-senescent IMR90 cells” value in the data set on IMR90 cells [3] was “cytotoxic effects also visible in non”. The EC50 amounted to 87 nM with IMR90 cells [4] (Homo sapiens, IMR-90, IMR90, Replicative/passages, read-out: EC50 senescent cells); 1000 nM in the data set with IMR90 cells [4] (Homo sapiens, IMR-90, IMR90, read-out: EC50 proliferating cells); 1040 nM with IMR90 cells [5] (Homo sapiens, IMR-90). Moreover, the “Senolytic evidence (no, partly/yes)” value in the data set with IMR90 cells [4] (IMR90, Replicative/passages) is “Yes”.
As to `Cc1nc(Nc2ncc(C(=O)Nc3c(C)cccc3Cl)s2)cc(N2CCN(CCO)CC2)n1` [Dasatinib, reference compound], the “Cytochrome C / mitochondria colocalization, Overlap R (OR)” value with IMR90 cells [6] worked out at 0.639; with MCF7 cells (TAM + Vehicle OR = 0.978), 0.956. The “Cytochrome C / mitochondria colocalization, Pearson's Rr (PRr)” value in the data set on MCF7 cells (TAM + Vehicle PRr = 0.961) came to 0.928.
